Measured values as given in patent US20210330611A1, “THERAPY FOR NEUROLOGICAL DISEASES/DISORDERS” (priority 2020, published 2021).
Structures can show the parent of a compound that is named as a salt. Where two headings read alike, the source gives them in different places.

Experiments:
[1] = system: LPS-induced microglia activation; assay: Image-based assay of LPS-induced microglia activation (HTS and dose response); format: cell-based, rat; conditions: for inhibition at 10 µM: Rattus norvegicus, Microglia, read-out: LPS % inhibition
[2] = system: fibrin- and LPS-induced microglia activation; assay: cells; format: cell-based, rat
primary rat microglia [3] = system: primary rat microglia
[4] = system: fibrin-induced microglia activation; assay: Image-based assay of fibrin-induced microglia activation (HTS and dose response); format: cell-based, rat; conditions: primary microglia HTS, fibrin stimulation; for inhibition at 10 µM: Rattus norvegicus, Microglia, read-out: Fibrin % inhibition
primary rat microglia [5] = assay: Cell toxicity (dead cells, size <150 μm2) in coated fibrin (cFib) assay; conditions: primary microglia HTS;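 further: share of dead cells sized under 150 µm2 at 10 µM in fibrin-stimulated microglia HTS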
[6] = classification by fibrin and LPS inhibition in HTS
[7] = cell size >800 μm2 as marker of activation
[8] = fibrin stimulation, cell size <150 μm2 as marker of toxicity
[9] = primary microglia HTS, LPS stimulation, compounds at 10 μM
[10] = classification by fibrin and LPS inhibition, HTS at 10 μM
[11] = fibrin assay, dead cells (size <150 μm2), compounds at 10 μM
[12] = primary microglia HTS, LPS stimulation, compounds at 10 μM, 10 µM
[13] = quadrant by fibrin and LPS inhibition, HTS at 10 μM
[14] = fibrin assay, dead cells (size <150 μm2)

Molecule | Quadrant (FIG. 5b) [2, 6] | LPS % cell toxicity (primary rat microglia [3]; rat) | Fibrin % cell toxicity (primary rat microglia [5]; [8]) | inhibition at 10 µM [1, 9] | Quadrant (FIG. 5b) [2, 10] | inhibition at 10 µM ([4]; compounds at 10 μM) | Fibrin % cell toxicity (primary rat microglia [5]; [11]) | also measured
O=P(O)(O)C(O)(Cc1cccnc1)P(=O)(O)O [Risedronate] | Q4 | 0% | 1% |  |  |  |  | inhibition at 10 µM ([1]; 48 h): 15%; inhibition at 10 µM [4, 7]: 47%
Cc1cc(N)c2ccccc2[n+]1CCCCCCCCCC[n+]1c(C)cc(N)c2ccccc21 [Dequadin] |  | 0% |  | 2% | Q4 | -32% | 0% | 
CCOC(=O)c1ccc(O)cc1 [Ethylparaben] |  | 1% |  | 8% | Q4 | -5% | 1% | 
C[C@]12CC[C@@H]3c4ccc(OC(=O)N(CCCl)CCCl)cc4CC[C@H]3[C@@H]1CC[C@@H]2O [Estramustine] |  | 1% |  | 16% | Q4 | 8% | 1% | 
CC[C@@H]1C(=O)OC[C@@H]1Cc1cncn1C [Pilocarpine] | Q4 | 0% | 1% |  |  |  |  | inhibition at 10 µM ([1]; 48 h): 14%; inhibition at 10 µM [4, 7]: -2%
C[C@@H](CO)NC(=O)[C@@H]1C=C2c3cccc4[nH]cc(c34)C[C@H]2N(C)C1 [Ergonovine] |  | 0% |  |  | Q4 |  | 1% | LPS % inhibition [1, 12]: −10%; Fibrin % inhibition ([4]; compounds at 10 μM, 10 µM): −23%
CC1=NS(=O)(=O)c2cc(Cl)ccc2N1 [Diazoxide] |  | 0% |  | 24% | Q4 | 3% | 0% | 
C[C@@H](CO)NC(=O)[C@@H]1C=C2c3cccc4[nH]cc(c34)C[C@H]2N(C)C1 [Ergonovine Maleate] |  | 0% |  |  | Q4 |  | 1% | LPS % inhibition [1, 12]: 7%; Fibrin % inhibition ([4]; compounds at 10 μM, 10 µM): 9%
CCC(NC(C)C)C(O)c1ccc(O)c2[nH]c(=O)ccc12 (centres unmarked) [Procaterol] | Q4 | 0% | 1% |  |  |  |  | inhibition at 10 µM ([1]; 48 h): 21%; inhibition at 10 µM [4, 7]: 16%
Cl.NCC(O)c1ccc(O)cc1 (racemic) |  |  |  |  |  |  |  | LPS % inhibition [1, 9]: 16%; Quadrant (FIG. 5b) [2, 13]: Q4; LPS % cell toxicity (primary rat microglia [3]): 0%; Fibrin % inhibition ([4]; compounds at 10 μM): −48%; Fibrin % cell toxicity (primary rat microglia [5]; [14]): 1%
CCC1(C)CC(=O)NC1=O (centres unmarked) [Ethosuximide] |  | 0% |  | 19% | Q4 | -9% | 0% | 
CC(=O)[C@H]1CC[C@H]2[C@@H]3CC=C4C[C@@H](O)CC[C@]4(C)[C@H]3CC[C@]12C [Pregnenolone] | Q4 |  | 1% |  |  |  |  | LPS % inhibition [1]: 12%; LPS % cell toxicity (primary rat microglia [3]): 0%; Fibrin % inhibition [4, 7]: −11%
NC[C@H]1O[C@H](O[C@H]2[C@H](O[C@@H]3O[C@H](CO)[C@@H](O)[C@H]3O)[C@@H](O)[C@H](N)C[C@@H]2N)[C@H](N)[C@@H](O)[C@@H]1O.O=S(=O)(O)O [Ribostamycin Sulfate] | Q4 |  | 0% |  |  |  |  | LPS % inhibition [1]: 13%; LPS % cell toxicity (primary rat microglia [3]): 0%; Fibrin % inhibition [4, 7]: −16%
Cc1cc(=O)n(-c2ccccc2)n1C [Antipyrine] |  | 1% |  | 13% |  | -8% |  | Quadrant (FIG. 5b) [2, 13]: Q4; Fibrin % cell toxicity (primary rat microglia [5]; [14]): 0%
FC(F)(Cl)C(F)(F)Cl [Cryoflurane] |  |  |  |  | Q4 |  | 1% | LPS % inhibition [1, 9]: 12%; LPS % cell toxicity (primary rat microglia [3]): 0%; Fibrin % inhibition ([4]; compounds at 10 μM): −4%
O=S(=O)(c1cccc2cnccc12)N1CCCNCC1 [Fasudil Hydrochloride] |  | 0% |  | -21% | Q4 | -72% | 1% | 
O=C(O)c1cc(O)c2c(c1)[C@H]([C@H]1c3cc(C(=O)O)cc(O)c3C(=O)c3c(O[C@@H]4O[C@H](CO)[C@@H](O)[C@H](O)[C@H]4O)cccc31)c1cccc(O[C@@H]3O[C@H](CO)[C@@H](O)[C@H](O)[C@H]3O)c1C2=O [Sennoside A] | Q4 |  | 1% |  |  |  |  | LPS % inhibition [1]: 14%; LPS % cell toxicity (primary rat microglia [3]): 0%; Fibrin % inhibition [4, 7]: −10%
CCOC(=O)OC(C)OC(=O)[C@@H]1N2C(=O)[C@@H](NC(=O)[C@H](N)c3ccccc3)[C@H]2SC1(C)C (some centres unmarked) [Bacampicillin Hydrochloride] |  | 0% |  | 8% |  | -12% |  | Quadrant (FIG. 5b) [2, 13]: Q4; Fibrin % cell toxicity (primary rat microglia [5]; [14]): 1%
NC(=O)C1(N2CCCCC2)CCN(CCCC(=O)c2ccc(F)cc2)CC1 [Pipamperone] | Q4 | 0% | 1% |  |  |  |  | inhibition at 10 µM ([1]; 48 h, primary microglia HTS, LPS stimulation, cell size >800 μm2 as marker of activation): 8%; inhibition at 10 µM [4, 7]: -4%
COc1ccc(-c2ccc3cc(C(=O)O)ccc3c2)cc1C12CC3CC(CC(C3)C1)C2 [Adapalene] |  | 4% |  | 45% |  | -12% |  | Quadrant (FIG. 5b) [2, 13]: Q4; Fibrin % cell toxicity (primary rat microglia [5]; [14]): 2%
CC(=O)SCC(Cc1ccccc1)C(=O)NCC(=O)OCc1ccccc1 (centres unmarked) [Racecadotril] | Q4 | 0% | 1% |  |  |  |  | inhibition at 10 µM ([1]; 48 h): 18%; inhibition at 10 µM [4, 7]: -51%
CCC1(CC)C(=O)C=CNC1=O [Pyrithyldione] | Q4 | 0% | 1% |  |  |  |  | inhibition at 10 µM ([1]; 48 h): 9%; inhibition at 10 µM [4, 7]: -24%
[N-]=[N+]=CC(=O)OC[C@H](N)C(=O)O [Azaserine] |  | 0% |  | 2% |  | 8% |  | Quadrant (FIG. 5b) [2, 13]: Q4; Fibrin % cell toxicity (primary rat microglia [5]; [14]): 1%
CC(O)(P(=O)(O)O)P(=O)(O)O [Etidronic acid] |  | 0% |  | 18% | Q4 | -16% | 1% | 
O=C(O)CSCC(=O)NC1CCSC1=O (centres unmarked) [Erdosteine] |  | 0% |  | 13% | Q4 | 2% | 1% | 
Pizotyline Malate | Q4 |  | 1% |  |  |  |  | LPS % inhibition [1]: 37%; LPS % cell toxicity (primary rat microglia [3]): 1%; Fibrin % inhibition [4, 7]: 8%
COc1ccc(-c2cc(=O)c3c(O)cc(O[C@@H]4O[C@H](CO[C@@H]5O[C@@H](C)[C@H](O)[C@@H](O)[C@H]5O)[C@@H](O)[C@H](O)[C@H]4O)cc3o2)cc1O [Diosmin] |  | 0% |  | 10% | Q4 | -12% | 1% | 
C[C@@H]1O[C@@H](O[C@@H]2C=C3CC[C@@H]4[C@H](CC[C@]5(C)[C@@H](c6ccc(=O)oc6)CC[C@]45O)[C@@]3(C)CC2)[C@H](O)[C@H](O)[C@H]1O [Proscillaridin] | Q4 | 0% | 1% |  |  |  |  | inhibition at 10 µM ([1]; 48 h): 16%; inhibition at 10 µM [4, 7]: 8%
